Marks after values point to notes of the source that are not given here.
Assays:
[1] = test system: six species oral biofilm; conditions: 0.2% w/v, 1 and 5 minutes of exposure; cited from earlier work
[2] = test system: S. sanguis cells grown as a biofilm; conditions: 0.2% w/v, 5 minute exposure, biofilm in a CDFF; cited from earlier work
[3] = test system: S. mutans biofilm; experiment: Early stage (6 h) S. mutans flow cell biofilms, 10 min treatment, 16 h recovery, CSLM; type: cell-based, Streptococcus mutans Ingbritt; design: key to Surface to biovolume ratio / Roughness coefficient (dimensionless, range: zero-infinity) / Biovolume / Average thickness: —: No significant amount of biofilms detected after 16 h recovery; conditions: 6 h biofilm
Protocol: (§1) Flowcell culture and CSLM analysis of monospecific biofilm The biofilm culture of S. mutans in flow cells was similar to that described by Wen et al. (2006) with several modifications. A 3-channel flow cell system (Stovall Life Science, Greensboro, N.C., USA) was modified with stopcocks for inoculation, testing and staining of the bacterial biofilms. All parts were assembled and 0.5% sodium hypochlorite was pumped in and left overnight. Sterile water (200 mL) was then used to flush the system prior to the addition of growth medium. The system was inoculated with 1 mL of an exponentially growing S. mutans Ingbritt culture diluted to a cell density of 1×10^7 cells/mL. The system was incubated for 1 h prior to constant flow (0.2 mL/min) of 25% ASM (ASM; 2.5 g/L type II porcine gastric mucin, 2.0 g/L bacteriological peptone, 2.0 g/L tryptone, 1.0 g/L yeast extract, 0.35 g/L NaCl, 0.2 g/L KCl, 0.2 g/L CaCl2 and 1 mg/L haemin, pH 7.0) supplemented with 2.5 mM DTT and 0.5 g/L sucrose.. After 16 h, 1 mL of purified glycosylated x-casein(106-169) (KCG); KCGP(f106-169); KCGPZ(f106-169) (KCGPZ(f106-169); 10 mg/mL KCGP(f106-169) and 20 mM ZnCl2); 20 mM ZnCl2; 0.1% chlorhexidine digluconate or sterile water was injected into each channel of the system and incubated for 10 min, the flow of 25% ASM was then resumed for 10 min prior to staining. For determination of the effects of treatments on early stage biofilms the system was incubated for 6 h after inoculation, treated with 1 mL of test solutions for 10 min and the flow of 25% ASM resumed for another 16 h to observe recovery of the biofilm. BacLight LIVE/DEAD stain (Molecular Probes) was then used to stain the biofilm in situ.
(§2) Confocal laser scanning microscopy (CLSM) of the bacterial biofilms was carried out on a Meta 510 Confocal Microscope with an inverted stage (Zeiss). Horizontal (xy) optodigital sections, each 2 μm thick over the entire thickness of the biofilm (z) were imaged using a 63× objective at 512×512 pixel (0.28 μm per pixel), with each frame at 143.86 μm (x)×143.86 μm (y). To determine reproducibility across the biofilm 5 images at random positions were obtained at wavelengths of 488 nm and 568 nm for each channel and 3 biological replicates were used. All images obtained were analysed using Comstat software (Heydorn et al., 2000).
(§3) Data treatment and statistical analyses. The biometric data were analyzed using a two-factor analysis of variance (ANOVA) model with treatment included as a fixed factor and experiment as a random blocking factor to investigate the effect of KCGP(f106-169), KCG, KCGPZ(f106-169), Zinc and chlorhexidine on established biofilms. If treatment differences were significant, post hoc comparisons of treatment differences were performed using the Tukey posttest. Model fits were checked by residual plots, normality was investigated using normal probability plots and the Kolmogorov-Smirnov test and homogeneity of error variances was tested using Levene's test. When the error variances were heterogeneous a natural logarithm transformation of the data was used to stabilize the treatment group variances. Treatments were then compared using ANOVA on the transformed data. The biometric data obtained from the experiments investigating the effect of KCGPZ(f106-169) on 6 h S. mutans biofilms was analysed using a Paired Samples T-Test. All analyses were conducted using SPSS statistical software (version 17.0, SPSS Inc., Chicago, Ill.).

[4] = 0.12% mouthwash, over a 12 week period; cited from earlier work
[5] = test system: S. mutans biofilms; experiment: Flow cell culture and CSLM analysis of 16 h S. mutans biofilms, single 10 min treatment; type: cell-based, Streptococcus mutans Ingbritt
Protocol: as §1, §2, §3

[6] = 0.1% chlorhexidine digluconate, 10 min treatment
[7] = 0.1% (Table 1), 16 h biofilm, single 10 min treatment
[8] = 0.1%, 16 h biofilm, single 10 min treatment
[9] = 0.1%, 16 h biofilm, single 10 min treatment, listed as Chlorhexidine digluconate

[H]/N=C(\N/C(=N/[H])NCCCCCCNC(=N)NC(=N)Nc1ccc(Cl)cc1)Nc1ccc(Cl)cc1 [Chlorhexidine, chlorhexidine digluconate]
effect on six species oral biofilm [1]: no significant difference
reduction in viable S. sanguis cells [2]: ~2 log10
Average thickness [3, 6]: —^b
Biovolume [3, 6]: —^b
Roughness coefficient (dimensionless, range: zero-infinity) [3, 6]: —^b
Surface to biovolume ratio [3, 6]: —^b
effect on early S. mutans biofilms in words ([3]; single 10 min treatment): substantially reducing the biofilms, which had not recovered after 16 h
reduction of gingival inflammation [4]: 25%
reduction of plaque accumulation [4]: 28%
reduction of average thickness [5, 7]: 59%
reduction of total biomass [5, 7]: 53%
Average thickness [5, 8]: 3.02 ± 0.66^a μm
Biovolume [5, 8]: 1.82 ± 0.60^a μm^3/μm^2
Roughness coefficient (dimensionless, range: zero-infinity) [5, 8]: 1.51 ± 0.12^a
Surface to biovolume ratio [5, 8]: 2.36 ± 1.24^ab μm^2/μm^3
Average thickness [5, 9]: Significant reduction
Biovolume [5, 9]: Significant reduction
Surface to biovolume ratio ([5]; 0.1%, 16 h biofilm, single 10 min treatment, listed as chlorhexidine): nonsignificant differences
dead S. mutans cells by propidium iodide staining (BacLight Live/Dead, FIG. 5) ([5]; 16 h biofilm after treatment, qualitative): qualitatively higher number of dead S. mutans cells compared with KCG or KCGPZ(f106-169)
disruption / inhibition of S. mutans biofilms, comparison between treatments in words ([5]; 16 h biofilm, single 10 min treatment, concentrations as in Table 1): not significantly different to those produced by ZnCl2, 2.4 mg/mL purified KCG or 10 mg/mL KCGP(f106-169)

[Cl-].[Cl-].[Zn+2] [ZnCl2]
Roughness coefficient (dimensionless, range: zero-infinity) ([5]; 20 mM, 16 h biofilm, single 10 min treatment): 1.54 ± 0.07^ab

Reference: patent US20120283174A1, “ANTIBIOFILM GLYCOPEPTIDES” (ORAL HEALTH AUSTRALIA PTY. LTD., priority 2009, published 2012)
